Source: patent US9186334B2 (Nuvo Research Inc., priority 2009, dated 2015)

Conditions: transdermal, 12 subjects
Description: Specifically, a single site, open label study was conducted on 12 subjects, with 4-way cross-over. Four (4) patches were applied for 2, 4, or 12 hours.

Compound: CCN(CC)CC(=O)Nc1c(C)cccc1C [lidocaine]
- rate of delivery, heated patch versus unheated patch: more rapidly
